Non-standard residues stand in square brackets, D forms with d. Residues, ends and D or L forms follow the SMILES beside them. Dmt = Cc1cc(O)cc(C)c1C[C@H](N)C(=O)O; Tic = O=C(O)[C@@H]1Cc2ccccc2CN1

The target in assay [1] is T1, Delta-type opioid receptor (Homo sapiens, UniProt P41143). Nature of the assay: Compound was evaluated for binding affinity towards Opioid receptor delta 1 by displacing 125 I-deltorphin II.
In assay [2] the target is Kappa-type opioid receptor (Homo sapiens, UniProt P41145). Nature of the assay: Compound was evaluated for binding affinity towards Opioid receptor kappa 1 by displacing 125 I-DPDYN.
Assay [3] deals with Mu-type opioid receptor (Homo sapiens, UniProt P35372). Nature of the assay: Compound was evaluated for binding affinity towards Opioid receptor mu 1 by displacing 125 I-FK-33824.
Assay [4] deals with Opioid receptors; mu & delta (Homo sapiens) (UniProt P41143+P35372). Put plainly: Ratio of binding affinity of compound to mu receptor compared to that of delta receptor (Mu/Delta). In kind it is protein assay.
In assay [5] the target is T1, Delta-type opioid receptor. Put plainly: Compound was tested for its ability to block the effect of selective delta opioid agonist SNC-80 in the functional assay.
Assay [6] addresses T1, Delta-type opioid receptor. Nature of the assay: Effective concentration for agonistic activity towards delta opioid receptor was determined by [35S]GTP-gamma-S functional assay. (In general: Binding of GTPγS marks nucleotide exchange on a G protein.)

T1 sequence (P41143 whole entry): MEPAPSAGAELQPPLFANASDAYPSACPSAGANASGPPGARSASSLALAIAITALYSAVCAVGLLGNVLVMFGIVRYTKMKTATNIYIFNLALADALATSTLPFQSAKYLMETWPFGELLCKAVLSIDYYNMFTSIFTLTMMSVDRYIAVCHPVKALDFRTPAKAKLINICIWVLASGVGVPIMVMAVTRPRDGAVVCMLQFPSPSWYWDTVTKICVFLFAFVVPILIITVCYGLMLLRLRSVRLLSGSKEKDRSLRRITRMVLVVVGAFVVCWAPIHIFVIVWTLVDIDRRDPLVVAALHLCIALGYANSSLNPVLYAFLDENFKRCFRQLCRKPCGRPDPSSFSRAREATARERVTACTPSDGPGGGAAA
Sequence of Mu-type opioid receptor (P35372 whole entry): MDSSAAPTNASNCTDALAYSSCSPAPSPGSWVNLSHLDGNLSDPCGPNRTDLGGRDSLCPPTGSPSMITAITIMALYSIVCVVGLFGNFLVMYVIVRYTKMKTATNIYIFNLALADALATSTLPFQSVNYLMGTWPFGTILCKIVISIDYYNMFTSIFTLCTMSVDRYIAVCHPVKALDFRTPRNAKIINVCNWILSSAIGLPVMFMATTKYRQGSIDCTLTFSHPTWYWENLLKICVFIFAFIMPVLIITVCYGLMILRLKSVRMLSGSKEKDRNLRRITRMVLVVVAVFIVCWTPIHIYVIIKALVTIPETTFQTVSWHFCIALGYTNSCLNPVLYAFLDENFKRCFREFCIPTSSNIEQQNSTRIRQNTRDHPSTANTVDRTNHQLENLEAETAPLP
Sequence of Opioid receptors; mu & delta (Homo sapiens) (P35372 whole entry, looked up): as the sequence (P35372 whole entry) above
Sequence of Opioid receptors; mu & delta (Homo sapiens) (P41143 whole entry, looked up): as the sequence (P41143 whole entry) above
Sequence of Kappa-type opioid receptor (P41145 whole entry): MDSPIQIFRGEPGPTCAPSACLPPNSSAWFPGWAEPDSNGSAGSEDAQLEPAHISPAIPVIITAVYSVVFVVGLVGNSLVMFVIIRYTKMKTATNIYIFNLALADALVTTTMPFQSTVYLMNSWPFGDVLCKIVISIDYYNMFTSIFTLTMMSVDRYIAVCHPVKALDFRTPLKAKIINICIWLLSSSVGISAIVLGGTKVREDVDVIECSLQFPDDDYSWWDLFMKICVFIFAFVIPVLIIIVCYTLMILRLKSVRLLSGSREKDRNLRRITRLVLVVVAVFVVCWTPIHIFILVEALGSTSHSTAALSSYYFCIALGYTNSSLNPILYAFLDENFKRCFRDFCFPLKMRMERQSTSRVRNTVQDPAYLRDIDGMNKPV

With `COc1ccc2c(c1)CN(C(=O)C(N)Cc1c(C)cc(O)cc1C)[C@H](C(=O)O)C2` (stereo partly drawn), the results for the IC50 in assay [1], in assay [2] and in assay [3] were 10.9 nM, 9000 nM and 2280 nM, respectively. Besides, the Ratio in assay [4] was found to be 211.
Taken in the same sequence, the figures for `COc1ccc2c(c1)CN(C(=O)[C@@H](N)Cc1c(C)cc(O)cc1C)[C@H](C(=O)O)C2` were 12.1 nM, 9440 nM, 2870 nM and 237.
As to `Cc1cc(O)cc(C)c1CC(N)C(=O)N1Cc2cc(-c3cc4ccccc4o3)ccc2C[C@H]1C(=O)O` (stereo partly drawn), the results for the 50% inhibitory concentration (IC50) in assay [1], in assay [2] and in assay [3] were 52.7 nM, > 10000 nM and 2440 nM, respectively.
Regarding `Cc1cc(O)cc(C)c1C[C@H](N)C(=O)N1Cc2cc(-c3ccc(F)cc3)ccc2C[C@H]1C(=O)O`, the IC50 (commonly the concentration needed to halve the response being measured) came out at 3.8 nM in assay [1], 7560 nM in assay [2] and 587 nM in assay [3]. In assay [5], this compound gave a Ke of 11.5 nM. Besides, the Ratio in assay [4] turned out to be 155.
Consider `COc1ccc(-c2ccc3c(c2)CN(C(=O)C(N)Cc2c(C)cc(O)cc2C)[C@H](C(=O)O)C3)cc1` (stereo partly drawn), for which the values for the half-inhibitory concentration (IC50) in assay [1], in assay [2] and in assay [3] were 4.9 nM, > 10000 nM and 2650 nM, respectively. The compound also returned a Ke in assay [5] of 38.6 nM. Also, the Ratio in assay [4] was 546.
`Cc1cc(O)cc(C)c1CC(N)C(=O)N1Cc2cc(O)ccc2C[C@H]1C(=O)O` (stereo partly drawn): the half-maximal inhibitory concentration (IC50) worked out at 236 nM in assay [1], 9290 nM in assay [2] and 2160 nM in assay [3]. Also, the Ratio in assay [4] was found to be 9.2.
As to `Cc1cc(O)cc(C)c1C[C@@H](N)C(=O)N1Cc2cc(-c3ccccc3)ccc2C[C@H]1C(=O)O`, the figures for the IC50 in assay [1], in assay [2] and in assay [3] were 122 nM, > 10000 nM and 1940 nM, respectively. In assay [4], the Ratio came out at 15.9.
In the same order, the values of `Cc1cc(O)cc(C)c1C[C@H](N)C(=O)N1Cc2c(cc(Br)c(O)c2Br)C[C@H]1C(=O)O` are 1080 nM, > 10000 nM, 1240 nM and 1.1.
On to `Cc1cc(O)cc(C)c1CC(N)C(=O)N1Cc2cc(-c3ccsc3)ccc2C[C@H]1C(=O)O` (stereo partly drawn), for which the IC50 in assay [1] worked out at 13.5 nM; in assay [2] it was 2730 nM; in assay [3], 142 nM. Further, the Ratio in assay [4] was found to be 10.5.
Consider `Cc1cc(O)cc(C)c1C[C@H](N)C(=O)N1Cc2ccccc2C[C@H]1C(=O)O` (H-[Dmt]-[Tic]-OH), for which the IC50 stood at 1.6 nM in assay [1], 37500 nM in assay [2] and 894 nM in assay [3]. In assay [5], this compound came in with a Ke of 5.3 nM. In assay [4], the Ratio was found to be 558.
Regarding `COc1cc2c(cc1-c1ccccc1)C[C@@H](C(=O)O)N(C(=O)C(N)Cc1c(C)cc(O)cc1C)C2` (stereo partly drawn), the concentration for half-maximal inhibition (IC50) in assay [1] is 2540 nM; in assay [2] it was > 10000 nM; in assay [3], > 10000 nM.
For `Cc1cc(O)cc(C)c1C[C@@H](N)C(=O)N1Cc2cc(-c3ccc(F)cc3)ccc2C[C@H]1C(=O)O`, the IC50 is 81.7 nM in assay [1] and > 10000 nM in assay [2].
Take `COc1ccc(-c2cc3c(cc2OC)CN(C(=O)C(N)Cc2c(C)cc(O)cc2C)[C@H](C(=O)O)C3)cc1` (stereo partly drawn): the IC50 was 1520 nM in assay [1], > 10000 nM in assay [2] and 4640 nM in assay [3]. Besides, the Ratio in assay [4] was found to be 3.1.
With `Cc1cc(O)cc(C)c1C[C@H](N)C(=O)N1Cc2cc(-c3ccccc3)ccc2C[C@H]1C(=O)O`, the figures for the IC50 in assay [1], in assay [2] and in assay [3] were 13.2 nM, 5740 nM and 635 nM, respectively. The Ratio in assay [4] was 48.1.
In the same order, the values of `COc1ccc(-c2ccc3c(c2)CN(C(=O)[C@@H](N)Cc2c(C)cc(O)cc2C)[C@H](C(=O)O)C3)cc1` are 5.8 nM, > 10000 nM, 1140 nM and 211.
`COc1c(Br)cc2c(c1Br)CN(C(=O)[C@@H](N)Cc1c(C)cc(O)cc1C)[C@H](C(=O)O)C2`: the figures for the IC50 in assay [1], in assay [2] and in assay [3] were 2.5 nM, > 10000 nM and 1670 nM, respectively. In addition, in assay [6], the midpoint of the response, the EC50, lay at 28 nM. The Ratio in assay [4] is 505.
For `COc1c(Br)cc2c(c1Br)CN(C(=O)[C@H](N)Cc1c(C)cc(O)cc1C)[C@H](C(=O)O)C2`, the values for the IC50 in assay [1] and in assay [3] were 571 nM and 8240 nM, respectively. In addition, the Ratio in assay [4] came to 14.4.
With `Cc1cc(O)cc(C)c1C[C@@H](N)C(=O)N1Cc2c(cc(Br)c(O)c2Br)C[C@H]1C(=O)O`, the IC50 in assay [1] is > 10000 nM; in assay [3], 8130 nM.
With `COc1cc2c(cc1-c1ccc(F)cc1)C[C@@H](C(=O)O)N(C(=O)C(N)Cc1c(C)cc(O)cc1C)C2` (stereo partly drawn), the IC50 in assay [1] is 1160 nM; in assay [2], > 10000 nM; in assay [3] it was 7220 nM. The Ratio in assay [4] worked out at 6.2.

The values above are taken from ChEMBL document CHEMBL1132761, “Novel Dmt-Tic dipeptide analogues as selective delta-opioid receptor antagonists” (Bioorg Med Chem Lett, 2000).
